Like-named read-outs stand apart in the source and are kept apart here.
Legend:
Assay type in all cases: in vivo
[1] = test system: morningglory (Ipomoea spp.); assay: Test A pre-/postemergence: morningglory; conditions: for pest or weed control at 500 g/ha: 500 g ai/ha; for Morningglory plant response rating: 1000 g ai/ha
In short: (§1)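 Each species received preemergence soil-directed spraying and, at the same time, postemergence treatment of seedlings 2–10 cm tall. Formulation: non-phytotoxic solvent mixture including surfactant. Response assessed visually about ten days on, relative to untreated controls, 0–100 scale.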

[2] = test system: pigweed (Amaranthus retroflexus); assay: Test C pre-/postemergence: pigweed; conditions: Postemergence
In short: (§2)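 Preemergence on seeds in loam/sand, postemergence on 2–18 cm (1–4-leaf) plants in peat-based medium; compounds in non-phytotoxic solvent with surfactant. After 13–15 days in greenhouse, visual rating versus controls, 0 (no effect) to 100 (complete control).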

[3] = test system: wheat (Triticum aestivum); assay: Test A pre-/postemergence: wheat; conditions: for plant injury at 125 g/ha / plant injury at 500 g/ha: Triticum aestivum, 240 h; for plant injury at 125 g/ha: 125 g ai/ha; for plant injury at 500 g/ha: 500 g ai/ha; for Wheat plant response rating: 1000 g ai/ha
In short: as §1

[4] = test system: ryegrass, Italian (Italian ryegrass, Lolium multiflorum); assay: Test C pre-/postemergence: ryegrass, Italian
In short: as §2

[5] = test system: velvetleaf (Abutilon theophrasti); assay: Test A pre-/postemergence: velvetleaf; conditions: for pest or weed control at 125 g/ha / pest or weed control at 500 g/ha: Abutilon theophrasti, 240 h; for pest or weed control at 125 g/ha: 125 g ai/ha; for pest or weed control at 500 g/ha: 500 g ai/ha; for Velvetleaf plant response rating: 1000 g ai/ha
In short: as §1

[6] = test system: chickweed (common chickweed, Stellaria media); assay: Test C postemergence: chickweed
In short: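 Visual 0–100 injury score vs untreated controls (0 none, 100 complete control), taken 13–15 d after treatment. Postemergence spray on potted plants, 2–18 cm, 1–4 leaves; greenhouse.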

[7] = test system: lambsquarters (Chenopodium album); assay: Test C pre-/postemergence: lambsquarters; conditions: Postemergence
In short: as §2

kochia (Kochia scoparia) = assay: Test C pre-/postemergence: kochia; conditions: Postemergence
In short: as §2

[8] = test system: foxtail, giant (giant foxtail, Setaria faberii); assay: Test C pre-/postemergence: foxtail, giant; conditions: Postemergence
In short: as §2

[9] = test system: pigweed (Amaranthus retroflexus); assay: Test A pre-/postemergence: pigweed; conditions: for pest or weed control at 125 g/ha / pest or weed control at 500 g/ha: Amaranthus retroflexus, 240 h; for pest or weed control at 125 g/ha: 125 g ai/ha; for pest or weed control at 500 g/ha: 500 g ai/ha; for Pigweed plant response rating: 1000 g ai/ha
In short: as §1

corn (Zea mays) = assay: Test A pre-/postemergence: corn; conditions: for Corn plant response rating: 1000 g ai/ha
In short: as §1

[10] = test system: morningglory (Ipomoea coccinea); assay: Test C pre-/postemergence: morningglory; conditions: Postemergence
In short: as §2

[11] = 31 g ai/ha, scale 0 to 100 (0 no effect, 100 complete control)
[12] = 62 g ai/ha, scale 0 to 100 (0 no effect, 100 complete control)
[13] = 125 g ai/ha, scale 0 to 100, 0 no effect, 100 complete control
[14] = Postemergence, 31 g ai/ha, scale 0 to 100 (0 no effect, 100 complete control)
[15] = Postemergence, 62 g ai/ha, scale 0 to 100 (0 no effect, 100 complete control)
[16] = Postemergence, 125 g ai/ha, scale 0 to 100, 0 no effect, 100 complete control
[17] = Postemergence, visual rating on 0 to 100 scale (0 no effect, 100 complete control), approximately ten days
[18] = Preemergence, 0 to 100 scale, 0 is no effect, 100 is complete control
[19] = 16 g ai/ha, scale 0 to 100, 0 no effect, 100 complete control

SMILES: Cc1nn(-c2ccc(F)cc2)nc1Cc1ccnc(C(F)(F)F)c1 [Compound 16, 4-[[2-(4-fluorophenyl)-5-methyl-2H-1,2,3-triazol-4-yl]methyl]-2-(trifluoromethyl)pyridine]
- pest or weed control at 125 g/ha ([1]; Ipomoea, post-emergence, 240 h, Postemergence, 125 g ai/ha, 0 to 100 scale, 0 is no effect, 100 is complete control, read-out: Morningglory plant response rating): 80%
- pest or weed control at 500 g/ha ([1]; Ipomoea, post-emergence, 240 h, Postemergence, visual rating on 0 to 100 scale (0 no effect, 100 complete control), approximately ten days, read-out: Morningglory plant response rating): 100%
- pest or weed control at 500 g/ha ([1]; Ipomoea, pre-emergence, 240 h, Preemergence, 0 to 100 scale, 0 is no effect, 100 is complete control, read-out: Plant response rating, Morningglory): 80%
- Plant response rating, Pigweed [2, 11]: 75
- Plant response rating, Pigweed [2, 12]: 95
- Plant response rating, Pigweed [2, 13]: 100
- Plant response rating, Pigweed ([2]; 250 g ai/ha, scale 0 to 100): 100
- plant injury at 125 g/ha ([3]; post-emergence, Postemergence, 0 to 100 scale, 0 is no effect, 100 is complete control, read-out: Wheat plant response rating): 20%
- plant injury at 500 g/ha ([3]; post-emergence, Postemergence, visual rating on 0 to 100 scale (0 no effect, 100 complete control), approximately ten days, read-out: Wheat plant response rating): 30%
- plant injury at 125 g/ha ([3]; pre-emergence, Preemergence, 0 to 100 scale (0 no effect, 100 complete control), read-out: Plant response rating, Wheat): 10%
- plant injury at 500 g/ha ([3]; pre-emergence, Preemergence, 0 to 100 scale, 0 is no effect, 100 is complete control, read-out: Plant response rating, Wheat): 20%
- Plant response rating, Ryegrass, Italian [4, 14]: 10
- Plant response rating, Ryegrass, Italian [4, 15]: 10
- Plant response rating, Ryegrass, Italian [4, 16]: 20
- Plant response rating, Ryegrass, Italian ([4]; Postemergence, 250 g ai/ha, scale 0 to 100): 20
- Plant response rating, Ryegrass, Italian ([4]; Preemergence, 31 g ai/ha, scale of 0 to 100, 0 is no effect, 100 is complete control): 5
- Plant response rating, Ryegrass, Italian ([4]; Preemergence, 62 g ai/ha, scale of 0 to 100, 0 is no effect, 100 is complete control): 95
- Plant response rating, Ryegrass, Italian ([4]; Preemergence, 125 g ai/ha, scale 0 to 100, 0 no effect, 100 complete control): 100
- Plant response rating, Ryegrass, Italian ([4]; Preemergence, 250 g ai/ha, scale 0 to 100, 0 no effect, 100 complete control): 100
- pest or weed control at 125 g/ha ([5]; post-emergence, Postemergence, 0 to 100 scale, 0 is no effect, 100 is complete control, read-out: Velvetleaf plant response rating): 100%
- pest or weed control at 500 g/ha ([5]; post-emergence, Postemergence, visual rating on 0 to 100 scale (0 no effect, 100 complete control), approximately ten days, read-out: Velvetleaf plant response rating): 100%
- pest or weed control at 125 g/ha ([5]; pre-emergence, Preemergence, 0 to 100 scale (0 no effect, 100 complete control), read-out: Plant response rating, Velvetleaf): 30%
- pest or weed control at 500 g/ha ([5]; pre-emergence, Preemergence, 0 to 100 scale, 0 is no effect, 100 is complete control, read-out: Plant response rating, Velvetleaf): 80%
- Plant response rating, Chickweed [6, 11]: 85
- Plant response rating, Chickweed [6, 12]: 98
- Plant response rating, Chickweed [6, 13]: 100
- Plant response rating, Chickweed ([6]; 250 g ai/ha, scale 0 to 100): 100
- Plant response rating, Lambsquarters [7, 11]: 95
- Plant response rating, Lambsquarters [7, 12]: 100
- Plant response rating, Lambsquarters [7, 13]: 100
- Plant response rating, Lambsquarters ([7]; 250 g ai/ha, scale 0 to 100): 100
- Plant response rating, Kochia (kochia (Kochia scoparia); [11]): 95
- Plant response rating, Kochia (kochia (Kochia scoparia); [12]): 98
- Plant response rating, Kochia (kochia (Kochia scoparia); [13]): 98
- Plant response rating, Kochia (kochia (Kochia scoparia); 250 g ai/ha, scale 0 to 100): 98
- Plant response rating, Foxtail, Giant [8, 11]: 40
- Plant response rating, Foxtail, Giant [8, 12]: 40
- Plant response rating, Foxtail, Giant [8, 13]: 50
- Plant response rating, Foxtail, Giant ([8]; 250 g ai/ha, scale 0 to 100): 50
- pest or weed control at 125 g/ha ([9]; post-emergence, Postemergence, 0 to 100 scale, 0 is no effect, 100 is complete control, read-out: Pigweed plant response rating): 100%
- pest or weed control at 500 g/ha ([9]; post-emergence, Postemergence, visual rating on 0 to 100 scale (0 no effect, 100 complete control), approximately ten days, read-out: Pigweed plant response rating): 100%
- pest or weed control at 125 g/ha ([9]; pre-emergence, Preemergence, 0 to 100 scale (0 no effect, 100 complete control), read-out: Plant response rating, Pigweed): 90%
- pest or weed control at 500 g/ha ([9]; pre-emergence, Preemergence, 0 to 100 scale, 0 is no effect, 100 is complete control, read-out: Plant response rating, Pigweed): 100%
- plant injury at 125 g/ha (corn (Zea mays); Zea mays, post-emergence, 240 h, Postemergence, 125 g ai/ha, 0 to 100 scale, 0 is no effect, 100 is complete control, read-out: Corn plant response rating): 30%
- plant injury at 500 g/ha (corn (Zea mays); Zea mays, post-emergence, 240 h, Postemergence, 500 g ai/ha, visual rating on 0 to 100 scale (0 no effect, 100 complete control), approximately ten days, read-out: Corn plant response rating): 50%
- Corn plant response rating (crop injury, 0 = no effect, 100 = complete kill) at 125 g/ha (corn (Zea mays); Zea mays, pre-emergence, 240 h, Preemergence, 125 g ai/ha, 0 to 100 scale (0 no effect, 100 complete control)): 10%
- Corn plant response rating (crop injury, 0 = no effect, 100 = complete kill) at 500 g/ha (corn (Zea mays); Zea mays, pre-emergence, 240 h, Preemergence, 500 g ai/ha, 0 to 100 scale, 0 is no effect, 100 is complete control): 20%
- Plant response rating, Morningglory [10, 11]: 50
- Plant response rating, Morningglory [10, 12]: 75
- Plant response rating, Morningglory [10, 13]: 75
- Plant response rating, Morningglory ([10]; 250 g ai/ha, scale 0 to 100): 80

SMILES: Cc1nn(-c2ccc(C(F)(F)F)cc2)nc1Cc1cccc(C(F)(F)F)c1 [Compound 124]
- Morningglory plant response rating [1, 17]: 100
- Morningglory plant response rating [1, 18]: 40
- Plant response rating, Pigweed [2, 19]: 75
- Plant response rating, Pigweed [2, 11]: 90
- Plant response rating, Pigweed [2, 12]: 95
- Plant response rating, Pigweed [2, 13]: 98
- Wheat plant response rating [3, 17]: 40
- Wheat plant response rating [3, 18]: 0
- Plant response rating, Ryegrass, Italian ([4]; Postemergence, 16 g ai/ha, scale 0 to 100, 0 no effect, 100 complete control): 5
- Plant response rating, Ryegrass, Italian [4, 14]: 15
- Plant response rating, Ryegrass, Italian [4, 15]: 35
- Plant response rating, Ryegrass, Italian [4, 16]: 65
- Velvetleaf plant response rating [5, 17]: 100
- Velvetleaf plant response rating [5, 18]: 80
- Plant response rating, Chickweed [6, 19]: 45
- Plant response rating, Chickweed [6, 11]: 50
- Plant response rating, Chickweed [6, 12]: 55
- Plant response rating, Chickweed [6, 13]: 55
- Plant response rating, Lambsquarters [7, 19]: 85
- Plant response rating, Lambsquarters [7, 11]: 95
- Plant response rating, Lambsquarters [7, 12]: 98
- Plant response rating, Lambsquarters [7, 13]: 98
- Plant response rating, Kochia (kochia (Kochia scoparia); [19]): 75
- Plant response rating, Kochia (kochia (Kochia scoparia); [11]): 80
- Plant response rating, Kochia (kochia (Kochia scoparia); [12]): 80
- Plant response rating, Kochia (kochia (Kochia scoparia); [13]): 85
- Plant response rating, Foxtail, Giant [8, 19]: 15
- Plant response rating, Foxtail, Giant [8, 11]: 15
- Plant response rating, Foxtail, Giant [8, 12]: 25
- Plant response rating, Foxtail, Giant [8, 13]: 45
- Pigweed plant response rating [9, 17]: 100
- Pigweed plant response rating [9, 18]: 100
- Corn plant response rating (corn (Zea mays); [17]): 60
- Corn plant response rating (corn (Zea mays); [18]): 10
- Plant response rating, Morningglory [10, 19]: 15
- Plant response rating, Morningglory [10, 11]: 15
- Plant response rating, Morningglory [10, 12]: 40
- Plant response rating, Morningglory [10, 13]: 40

From US9302999B2, “Substituted triazoles as herbicides” (E. I. DU PONT DE NEMOURS AND COMPANY, priority 2012, dated 2016)
